Experimental data reported in ChEMBL document CHEMBL4024707, “Using gene expression database to uncover biology functions of 1,4-disubstituted 1,2,3-triazole analogues synthesized via a copper (I)-catalyzed reaction” (Eur J Med Chem, 2017).

How the values were obtained:
[1] = system: Hep 3B2; test: Cell cycle arrest in human Hep3B cells assessed as accumulation at G0/G1 phase at 5 uM after 48 hrs by propidium iodide staining based flow cytometry (reference value: 39.7 to 40.4%); type: functional
[2] = system: Hep 3B2; test: Induction of autophagy in human Hep3B cells at 40 uM after 72 hrs by acridine orange staining based flow cytometry (reference value: 1.1 to 4%); type: functional
[3] = system: Hep 3B2; test: Cell cycle arrest in human Hep3B cells assessed as accumulation at sub-G1 phase at 40 uM after 24 hrs by propidium iodide staining based flow cytometry (reference value: 1.9 to 3.6%); type: functional
[4] = system: Hep 3B2; test: Induction of autophagy in human Hep3B cells at 40 uM after 24 hrs by acridine orange staining based flow cytometry (reference value: 1.1 to 1.3%); type: functional
[5] = system: Hep 3B2; test: Cell cycle arrest in human Hep3B cells assessed as accumulation at G0/G1 phase at 10 uM after 48 hrs by propidium iodide staining based flow cytometry (reference value: 39.7 to 40.4%); type: functional
[6] = system: Hep 3B2; test: Cell cycle arrest in human Hep3B cells assessed as accumulation at S phase at 40 uM after 24 hrs by propidium iodide staining based flow cytometry (reference value: 22.6 to 27.1%); type: functional
[7] = system: Hep 3B2; test: Cell cycle arrest in human Hep3B cells assessed as accumulation at G2/M phase at 40 uM after 24 hrs by propidium iodide staining based flow cytometry (reference value: 31.8 to […]%); type: functional
[8] = system: Hep 3B2; test: Cell cycle arrest in human Hep3B cells assessed as accumulation at G0/G1 phase at 2.5 uM after 72 hrs by propidium iodide staining based flow cytometry (reference value: 41.6 to 46.2%); type: functional
[9] = system: Hep 3B2; test: Cell cycle arrest in human Hep3B cells assessed as accumulation at G0/G1 phase at 40 uM after 72 hrs by propidium iodide staining based flow cytometry (reference value: 41.6 to 46.2%); type: functional
[10] = system: Hep 3B2; test: Cell cycle arrest in human Hep3B cells assessed as accumulation at G0/G1 phase at 10 uM after 72 hrs by propidium iodide staining based flow cytometry (reference value: 41.6 to 46.2%); type: functional
[11] = system: Hep 3B2; test: Down regulation of HTRA1 expression in human Hep3B cells at 1 uM after 6 to 24 hrs by L1000 expression profiling method relative to control; type: functional
[12] = system: Hep 3B2; test: Down regulation of TFAP2A expression in human Hep3B cells at 1 uM after 6 to 24 hrs by L1000 expression profiling method relative to control; type: functional
[13] = biological target: Glycogen synthase kinase-3 beta (Homo sapiens) (UniProt P49841); test: Inhibition of GSK3beta phosphorylation at Ser9 in human Hep3B cells assessed as ratio of phosphorylated GSK3beta to beta-actin level at 10 uM after 48 hrs by Western blot analysis; type: cell-based
Glycogen synthase kinase-3 beta (Homo sapiens), sequence (P49841 whole entry, looked up): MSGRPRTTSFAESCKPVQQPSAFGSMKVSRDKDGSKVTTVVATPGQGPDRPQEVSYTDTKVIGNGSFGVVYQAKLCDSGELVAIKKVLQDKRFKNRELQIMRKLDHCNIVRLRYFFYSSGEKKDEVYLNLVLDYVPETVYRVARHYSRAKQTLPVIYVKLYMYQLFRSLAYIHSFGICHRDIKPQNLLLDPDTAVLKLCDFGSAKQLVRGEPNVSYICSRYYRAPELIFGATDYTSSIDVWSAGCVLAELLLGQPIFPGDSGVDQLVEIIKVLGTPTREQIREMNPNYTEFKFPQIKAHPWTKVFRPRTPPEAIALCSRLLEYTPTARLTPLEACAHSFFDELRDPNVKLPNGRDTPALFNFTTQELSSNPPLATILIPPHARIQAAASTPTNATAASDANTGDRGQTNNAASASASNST

[14] = system: Hep 3B2; test: Down regulation of PLEKHM1 expression in human Hep3B cells at 1 uM after 6 to 24 hrs by L1000 expression profiling method relative to control; type: functional
[15] = system: Hep 3B2; test: Up regulation of CCND1 expression in human Hep3B cells at 1 uM after 6 to 24 hrs by L1000 expression profiling method relative to control; type: functional
[16] = system: Hep 3B2; test: Cell cycle arrest in human Hep3B cells assessed as accumulation at G0/G1 phase at 10 uM after 48 hrs in absence of curcumin by propidium iodide staining based flow cytometry (reference value: […] +/- […]%); type: functional
[17] = system: Hep 3B2; test: Down regulation of FZD1 expression in human Hep3B cells at 1 uM after 6 to 24 hrs by L1000 expression profiling method relative to control; type: functional
[18] = system: Hep 3B2; test: Up regulation of OXA1L expression in human Hep3B cells at 1 uM after 6 to 24 hrs by L1000 expression profiling method relative to control; type: functional
[19] = system: Hep 3B2; test: Cell cycle arrest in human Hep3B cells assessed as accumulation at S phase at 10 uM after 48 hrs in presence of curcumin by propidium iodide staining based flow cytometry (reference value: 23.8 +/- 1.9%); type: functional
[20] = system: Hep 3B2; test: Down regulation of NVL expression in human Hep3B cells at 1 uM after 6 to 24 hrs by L1000 expression profiling method relative to control; type: functional
[21] = system: HT-29; test: Cytotoxicity against human HT-29 cells after 6 days by MTT assay; type: functional, cell-based; settings: HT-29, 144 h
[22] = system: Hep 3B2; test: Down regulation of PPOX expression in human Hep3B cells at 1 uM after 6 to 24 hrs by L1000 expression profiling method relative to control; type: functional
[23] = system: Hep 3B2; test: Down regulation of GRB7 expression in human Hep3B cells at 1 uM after 6 to 24 hrs by L1000 expression profiling method relative to control; type: functional
[24] = system: Hep 3B2; test: Down regulation of PPP1R13B expression in human Hep3B cells at 1 uM after 6 to 24 hrs by L1000 expression profiling method relative to control; type: functional
[25] = system: Hep 3B2; test: Down regulation of FAM69A expression in human Hep3B cells at 1 uM after 6 to 24 hrs by L1000 expression profiling method relative to control; type: functional
[26] = system: Hep 3B2; test: Down regulation of IL1B expression in human Hep3B cells at 1 uM after 6 to 24 hrs by L1000 expression profiling method relative to control; type: functional
[27] = system: Hep 3B2; test: Down regulation of PTPRK expression in human Hep3B cells at 1 uM after 6 to 24 hrs by L1000 expression profiling method relative to control; type: functional
[28] = system: Hep 3B2; test: Up regulation of RPS6KA1 expression in human Hep3B cells at 1 uM after 6 to 24 hrs by L1000 expression profiling method relative to control; type: functional
[29] = system: Hep 3B2; test: Down regulation of HIST2H2BE expression in human Hep3B cells at 1 uM after 6 to 24 hrs by L1000 expression profiling method relative to control; type: functional
[30] = system: Hep 3B2; test: Cell cycle arrest in human Hep3B cells assessed as accumulation at G2/M phase at 10 uM after 48 hrs in absence of curcumin by propidium iodide staining based flow cytometry (reference value: 36.6 +/- 2.9%); type: functional
[31] = system: Hep 3B2; test: Down regulation of CHAC1 expression in human Hep3B cells at 1 uM after 6 to 24 hrs by L1000 expression profiling method relative to control; type: functional
[32] = system: Hep 3B2; test: Up regulation of ARFIP2 expression in human Hep3B cells at 1 uM after 6 to 24 hrs by L1000 expression profiling method relative to control; type: functional
[33] = system: Hep 3B2; test: Growth inhibition of human Hep3B cells at 5 uM after 48 hrs in presence of curcumin by MTT assay; type: functional
[34] = system: Hep 3B2; test: Down regulation of FUT1 expression in human Hep3B cells at 1 uM after 6 to 24 hrs by L1000 expression profiling method relative to control; type: functional
[35] = system: Hep 3B2; test: Down regulation of TMX2-CTNND1 expression in human Hep3B cells at 1 uM after 6 to 24 hrs by L1000 expression profiling method relative to control; type: functional
[36] = system: Hep 3B2; test: Down regulation of EDN1 expression in human Hep3B cells at 1 uM after 6 to 24 hrs by L1000 expression profiling method relative to control; type: functional

Structure (SMILES): COc1ccc(CNC(=O)Nc2ncc([N+](=O)[O-])s2)cc1
- Activity [1]: 38.5%
- Activity [2]: 23.3%
- Activity [3]: 6.5%
- Activity [4]: 7.1%
- Activity [5]: 39.4%
- Activity [6]: 21.1%
- Activity [7]: 37.6%
- Activity [8]: 42.3%
- Activity [9]: 38.5%
- Activity [10]: 43.3%

Structure (SMILES): O=C1COc2ccccc2N1Cc1cn(CCC2OCCO2)nn1
- log2FC [11]: -3.2036
- log2FC [12]: -3.78
- Ratio [13]: 0.7
- log2FC [14]: -3.9025
- log2FC [15]: 3.2544
- Activity [16]: 11.6%
- log2FC [17]: -3.5324
- log2FC [18]: 3.2193
- Activity [19]: 8.8%
- log2FC [20]: -3.779
- IC50 [21]: 5.7 µM
- log2FC [22]: -3.7552
- log2FC [23]: -4.419
- log2FC [24]: -3.1647
- log2FC [25]: -4.3309
- log2FC [26]: -3.3463
- log2FC [27]: -3.3276
- log2FC [28]: 3.2908
- log2FC [29]: -4.2274
- Activity [30]: 37.1%
- log2FC [31]: -4.0849
- log2FC [32]: 3.4502
- CI [33]: 0.92
- log2FC [34]: -3.2524
- log2FC [35]: -3.9071
- log2FC [36]: -3.5482
